Measurements: US8952024B2, “Herbicidal pyrimidone derivatives” (E I du Pont de Nemours and Company, priority 2009, dated 2015)

How the values were obtained:
Assay in all cases: Test B pre-/postemergence plant response
Format in all cases: in vivo
[1] = test system: Italian ryegrass (Lolium multiflorum)
In short: (§1)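 Compound in solvent + surfactant applied pre-em (loam/sand) or post-em (plants 2–18 cm, peat medium); greenhouse hold 13–15 days; visual 0–100 control score.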

[2] = test system: large crabgrass (Digitaria sanguinalis)
In short: as §1

[3] = test system: green foxtail (Setaria viridis)
In short: as §1

[4] = test system: blackgrass (Alopecurus myosuroides)
In short: as §1

[5] = test system: lambsquarters (Chenopodium album)
In short: as §1

[6] = test system: Surinam grass (Brachiaria decumbens)
In short: as §1

[7] = test system: bermudagrass (Cynodon dactylon)
In short: as §1

[8] = test system: morningglory (Ipomoea coccinea)
In short: as §1

[9] = test system: yellow nutsedge (Cyperus esculentus)
In short: as §1

[10] = test system: downy bromegrass (Bromus tectorum)
In short: as §1

[11] = test system: woolly cupgrass (Eriochloa villosa)
In short: as §1

corn (Zea mays) = test system: corn (Zea mays)
In short: as §1

[12] = test system: giant foxtail (Setaria faberii)
In short: as §1

[13] = 31 g ai/ha, postemergence, scale 0 to 100, 0 is no effect, 100 is complete control
[14] = Postemergence, 62 g ai/ha, scale 0 (no effect) to 100 (complete control), 13 to 15 days
[15] = Postemergence, 125 g ai/ha, visual rating after 13 to 15 days, scale 0 (no effect) to 100 (complete control)
[16] = Postemergence, 250 g ai/ha, scale 0 to 100 (0 no effect, 100 complete control)
[17] = Preemergence, 31 g ai/ha, scale 0 to 100 (0 no effect, 100 complete control)
[18] = Preemergence, 62 g ai/ha, scale 0 to 100 (0 no effect, 100 complete control)
[19] = Preemergence, 125 g ai/ha, scale 0 to 100, 0 no effect, 100 complete control
[20] = 250 g ai/ha, Preemergence, 0 to 100 scale

For `Cn1c(-c2ccccc2)ncc(C(=O)C2=C(O)CCCC2=O)c1=O` [Compound 55], the “Plant response rating, Ryegrass, Italian” value [1, 13] was 0, the “Plant response rating, Ryegrass, Italian” value [1, 14] was 0 and the “Plant response rating, Ryegrass, Italian” value [1, 15] was 0. The “Plant response rating, Ryegrass, Italian” value [1, 16] was 0, the “Plant response rating, Ryegrass, Italian” value [1, 17] was 0 and the “Plant response rating, Ryegrass, Italian” value [1, 18] was 0. The “Plant response rating, Ryegrass, Italian” value [1, 19] was 0, the “Plant response rating, Crabgrass, Large” value [2, 13] was 60 and the “Plant response rating, Crabgrass, Large” value [2, 20] was 98. The “Plant response rating, Crabgrass, Large” value [2, 14] was 75, the “Plant response rating, Crabgrass, Large” value [2, 15] was 80 and the “Plant response rating, Crabgrass, Large” value [2, 16] was 85. The “Plant response rating, Crabgrass, Large” value [2, 17] was 10, the “Plant response rating, Crabgrass, Large” value [2, 18] was 60 and the “Plant response rating, Crabgrass, Large” value [2, 19] was 95. For the same compound, the “Plant response rating, Foxtail, Green” value [3, 13] was 30, the “Plant response rating, Foxtail, Green” value [3, 20] was 0 and the “Plant response rating, Foxtail, Green” value [3, 14] was 40. The “Plant response rating, Foxtail, Green” value [3, 15] was 80, the “Plant response rating, Foxtail, Green” value [3, 16] was 80 and the “Plant response rating, Foxtail, Green” value [3, 17] was 0. The “Plant response rating, Foxtail, Green” value [3, 18] was 0, the “Plant response rating, Foxtail, Green” value [3, 19] was 0 and the “Plant response rating, Blackgrass” value [4, 13] was 0. The “Plant response rating, Blackgrass” value [4, 20] was 30, the “Plant response rating, Blackgrass” value [4, 14] was 0 and the “Plant response rating, Blackgrass” value [4, 15] was 5. For the same compound, the “Plant response rating, Blackgrass” value [4, 16] was 10, the “Plant response rating, Blackgrass” value [4, 17] was 0 and the “Plant response rating, Blackgrass” value [4, 18] was 0. The “Plant response rating, Blackgrass” value [4, 19] was 0, the “Plant response rating, Lambsquarters” value [5, 13] was 80 and the “Plant response rating, Lambsquarters” value [5, 20] was 100. The “Plant response rating, Lambsquarters” value [5, 14] was 80, the “Plant response rating, Lambsquarters” value [5, 15] was 95 and the “Plant response rating, Lambsquarters” value [5, 16] was 98. For the same compound, the “Plant response rating, Lambsquarters” value [5, 17] was 95, the “Plant response rating, Lambsquarters” value [5, 18] was 98 and the “Plant response rating, Lambsquarters” value [5, 19] was 98. The “Plant response rating, Surinam Grass” value [6, 13] was 10, the “Plant response rating, Surinam Grass” value [6, 14] was 15 and the “Plant response rating, Surinam Grass” value [6, 15] was 45. For the same compound, the “Plant response rating, Surinam Grass” value [6, 16] was 60, the “Plant response rating, Surinam Grass” value [6, 17] was 0 and the “Plant response rating, Surinam Grass” value [6, 18] was 0. For the same compound, the “Plant response rating, Surinam Grass” value [6, 19] was 0, the “Plant response rating, Bermudagrass” value [7, 13] was 80 and the “Plant response rating, Bermudagrass” value [7, 20] was 100. For the same compound, the “Plant response rating, Bermudagrass” value [7, 14] was 80, the “Plant response rating, Bermudagrass” value [7, 15] was 85 and the “Plant response rating, Bermudagrass” value [7, 16] was 90. The “Plant response rating, Bermudagrass” value [7, 17] was 95, the “Plant response rating, Bermudagrass” value [7, 18] was 98 and the “Plant response rating, Bermudagrass” value [7, 19] was 100. The “Plant response rating, Morningglory” value [8, 13] was 55, the “Plant response rating, Morningglory” value [8, 14] was 60 and the “Plant response rating, Morningglory” value [8, 15] was 75. The “Plant response rating, Morningglory” value [8, 16] was 85, the “Plant response rating, Morningglory” value [8, 17] was 0 and the “Plant response rating, Morningglory” value [8, 18] was 0. For the same compound, the “Plant response rating, Morningglory” value [8, 19] was 45, the “Plant response rating, Nutsedge, Yellow” value [9, 13] was 10 and the “Plant response rating, Nutsedge, Yellow” value [9, 14] was 10. The “Plant response rating, Nutsedge, Yellow” value [9, 15] was 55, the “Plant response rating, Nutsedge, Yellow” value [9, 16] was 65 and the “Plant response rating, Nutsedge, Yellow” value [9, 17] was 0. The “Plant response rating, Nutsedge, Yellow” value [9, 18] was 45, the “Plant response rating, Nutsedge, Yellow” value [9, 19] was 45 and the “Plant response rating, Bromegrass, Downy” value [10, 13] was 0. For the same compound, the “Plant response rating, Bromegrass, Downy” value [10, 20] was 0, the “Plant response rating, Bromegrass, Downy” value [10, 14] was 0 and the “Plant response rating, Bromegrass, Downy” value [10, 15] was 0. The “Plant response rating, Bromegrass, Downy” value [10, 16] was 0, the “Plant response rating, Bromegrass, Downy” value [10, 17] was 0 and the “Plant response rating, Bromegrass, Downy” value [10, 18] was 0. For the same compound, the “Plant response rating, Bromegrass, Downy” value [10, 19] was 0, the “Plant response rating, Cupgrass, Woolly” value [11, 13] was 10 and the “Plant response rating, Cupgrass, Woolly” value [11, 20] was 55. For the same compound, the “Plant response rating, Cupgrass, Woolly” value [11, 14] was 10, the “Plant response rating, Cupgrass, Woolly” value [11, 15] was 15 and the “Plant response rating, Cupgrass, Woolly” value [11, 16] was 20. The “Plant response rating, Cupgrass, Woolly” value [11, 17] was 0, the “Plant response rating, Cupgrass, Woolly” value [11, 18] was 0 and the “Plant response rating, Cupgrass, Woolly” value [11, 19] was 0. The “Plant response rating, Corn” value (corn (Zea mays); [13]) was 0, the “Plant response rating, Corn” value (corn (Zea mays); [20]) was 0 and the “Plant response rating, Corn” value (corn (Zea mays); [14]) was 5. For the same compound, the “Plant response rating, Corn” value (corn (Zea mays); [15]) was 5, the “Plant response rating, Corn” value (corn (Zea mays); [16]) was 10 and the “Plant response rating, Corn” value (corn (Zea mays); [17]) was 0. For the same compound, the “Plant response rating, Corn” value (corn (Zea mays); [18]) was 0, the “Plant response rating, Corn” value (corn (Zea mays); [19]) was 0 and the “Plant response rating, Foxtail, Giant” value [12, 13] was 25. For the same compound, the “Plant response rating, Foxtail, Giant” value [12, 20] was 10, the “Plant response rating, Foxtail, Giant” value [12, 14] was 30 and the “Plant response rating, Foxtail, Giant” value [12, 15] was 55. The “Plant response rating, Foxtail, Giant” value [12, 16] was 75, the “Plant response rating, Foxtail, Giant” value [12, 17] was 0 and the “Plant response rating, Foxtail, Giant” value [12, 18] was 0. For the same compound, the “Plant response rating, Foxtail, Giant” value [12, 19] was 0.
